# Measurements published in patent publication US9303015B2, “Heteroaryl linked quinolinyl modulators of RORγt” (Janssen Pharmaceutica NV, priority 2012, dated 2016).
# Counter-ions that a name gives are not always drawn.
# Experiments:
# human RORγt LBD = human RORγt LBD (Homo sapiens (Human), UniProt P51449); test: RORγt reporter assay (GAL4-RORγt LBD luciferase, HEK293T cells); format: cell-based; conditions: for inhibition at 6 µM: HEK-293T, read-out: RORγt reporter Assay, % inhibition @ 6 μM, 6 μM, HEK293T cells; for RORγt reporter Assay, % inhibition @ 6 μM: HEK293T cells
# Excerpt: A reporter assay was used to test functional activity of RORγt modulatory compounds on transcriptional activation driven by the RORγt LBD. Cells used in the assay were co-transfected with two constructs. The first construct, pBIND-RORγt LBD, contained the wild type human RORγt LBD fused to the DNA binding domain of the GAL4 protein. The second construct, pGL4.31 (Promega Cat no. C935A), contained multiple GAL4 responsive DNA elements upstream of firefly luciferase. […] The mutant construct was called pBIND-RORγt-AF2. […] The pBIND vector contains the GAL4 DNA Binding Domain (GAL4 DBD) and the renilla luciferase gene under control of the SV40 promoter. Renilla luciferase expression serves as a control for transfection efficiency and cell viability.
# The reporter assay was performed by transiently transfecting HEK293T cells with 5 μg of pBIND-RORγt LBD or pBIND-RORγt LBD-AF2 and 5 μg pGL4.31 (Promega Cat no. C935A) using Fugene 6 (Invitrogen Cat no. E2691) at a 1:6 ratio of DNA: Fugene 6 in a T-75 flask in which cells were at least 80% confluent. Twenty four hours after bulk transfection, cells were plated into 96-well plates at 50,000 cells/well in phenol-red free DMEM containing 5% Lipid Reduced FCS and Pen/Strep. Six hours after plating, cells were treated with compounds for 24 hours. Media was removed and cells were lysed with 50 μL 1x Glo Lysis Buffer (Promega). Dual Glo Luciferase Reagent (50 μL/well) was then added and firefly luciferase luminescence was read on an Envision after a ten minute incubation. Finally, Stop and Glo reagent (50 μL/well) was added and renilla luciferase luminescence was read on an Envision after a ten minute incubation. To calculate the effect of compounds on RORγt activity, the ratio of firefly to renilla luciferase was determined and plotted against compound concentration. Agonist compounds increase RORγt-driven luciferase expression, and antagonist or inverse agonist compounds decrease luciferase expression.
# [1] = test system: IL-17 production by CD4 T cells; test: Human Th17 assay; format: cell-based; conditions: IL-17 in supernatant after 3 days, human CD4+ T cells under Th17 differentiation
# Excerpt: The human Th17 assay tests the effect of RORγt modulatory compounds on IL-17 production by CD4 T cells under conditions which favor Th17 differentiation.
# Total CD4^+ T cells were isolated from the peripheral blood mononuclear cells (PBMC) of healthy donors using a CD4^+ T cell isolation kit II, following the manufacturer's instructions (Miltenyi Biotec). Cells were resuspended in a medium of RPMI-1640 supplemented with 10% fetal bovine serum, penicillin, streptomycin, glutamate, and β-mercaptoethanol and were added to 96-well plates at 1.5×10^5 per 100 μL per well. 50 μL of compound at titrated concentrations in DMSO were added into each well at final DMSO concentration at 0.2%. Cells were incubated for 1 hour, then 50 μL of Th17 cell differentiation medium was added to each well. The final concentrations of antibodies and cytokines (R&D Systems) in differentiation medium were: 3×10^6/mL anti-CD3/CD28 beads (prepared using human T cell activation/expansion kit, Miltenyi Biotec), 10 μg/mL anti-IL4, 10 μg/mL anti-IFNγ, 10 ng/mL IL113, 10 ng/mL IL23, 50 ng/mL IL6, 3 ng/mL TGFβ and 20 U/mL IL2. Cells were cultured at 37° C. and 5% CO2 for 3 days. Supernatants were collected and the accumulated IL-17 in culture was measured by using MULTI-SPOT® Cytokine Plate following manufacture's instruction (Meso Scale Discovery). The plate was read using Sector Imager 6000, and IL-17 concentration was extrapolated from the standard curve. The IC50s were determined by GraphPad.
# human RORγt LBD, sequence (P51449 258-518): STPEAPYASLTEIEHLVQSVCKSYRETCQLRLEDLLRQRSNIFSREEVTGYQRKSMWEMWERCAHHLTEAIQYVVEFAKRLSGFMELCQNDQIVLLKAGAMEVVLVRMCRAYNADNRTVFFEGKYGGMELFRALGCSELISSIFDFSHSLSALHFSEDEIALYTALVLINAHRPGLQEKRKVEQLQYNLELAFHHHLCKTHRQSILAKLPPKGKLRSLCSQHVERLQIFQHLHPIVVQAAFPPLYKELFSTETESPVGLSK
SMILES,inhibition at 6 µM (human RORγt LBD),IC50 [1],"RORγt reporter Assay, % inhibition @ 6 μM (human RORγt LBD)","IC50 ([1]; Homo sapiens, CD4+ T, 72 h)"
"CCN(CC)c1nc2ccc(C(O)(c3ccc(C(F)(F)F)nc3)c3cncn3C)cc2c(C(F)(F)F)c1Oc1ccc(Cl)cc1 (single isomer, unassigned) [Example 27b, (3-(4-Chlorophenoxy)-2-(diethylamino)-4-(trifluoromethyl)quinolin-6-yl)(1-methyl-1H-imidazol-5-yl)(6-(trifluoromethyl)pyridin-3-yl)methanol]",92%,0.051 µM,–,–
"CCOc1nc2ccc(C(O)(c3ccc(Cl)cc3)c3cncn3C)cc2c(Cl)c1Oc1ccccc1 (single isomer, unassigned) [Example 2b]",92%,0.66 µM,–,–
"Cn1cncc1C(O)(c1ccc(C(F)(F)F)nc1)c1ccc2nc(N3CCC3)c(Oc3ccc(C#N)cc3)c(Cl)c2c1 (single isomer, unassigned) [Example 31b, 4-((2-(Azetidin-1-yl)-4-chloro-6-(hydroxy(1-methyl-1H-imidazol-5-yl)(6-(trifluoromethyl)pyridin-3-yl)methyl)quinolin-3-yl)oxy)benzonitrile]",–,~0.1 µM,–,–
"CCOc1nc2ccc(C(O)(c3ccc(OC)nc3)c3cncn3C)cc2c(Cl)c1Oc1ccccc1 (single isomer, unassigned) [Example 10c]",–,0.095 µM,103%,–
"CCN(CC)c1nc2ccc(C(O)(c3cncs3)c3cncn3C)cc2c(Cl)c1Oc1ccccc1 (stereo not shown) [Example 8, (4-Chloro-2-(diethylamino)-3-phenoxyquinolin-6-yl)(1-methyl-1H-imidazol-5-yl)(thiazol-5-yl)methanol.TFA]",95%,–,–,0.048 µM
"Cn1cncc1C(O)(c1ccc(C(F)(F)F)nc1)c1ccc2nc(N3CCCC3)c(Oc3ccc(C#N)cc3)c(Cl)c2c1 (stereo not shown) [Example 33, 4-((4-Chloro-6-(hydroxy(1-methyl-1H-imidazol-5-yl)(6-(trifluoromethyl)pyridin-3-yl)methyl)-2-(pyrrolidin-1-yl)quinolin-3-yl)oxy)benzonitrile]",–,–,–,0.088 µM
"CCOc1nc2ccc(C(O)(c3ccc(C(F)(F)F)nc3)c3cncn3C)cc2c(C(F)(F)F)c1Oc1ccc(Cl)cc1 (single isomer, unassigned) [Example 25b, (3-(4-Chlorophenoxy)-2-ethoxy-4-(trifluoromethyl)quinolin-6-yl)(1-methyl-1H-imidazol-5-yl)(6-(trifluoromethyl)pyridin-3-yl)methanol]",–,–,92%,0.44 µM
"Cn1cncc1C(O)(c1ccc(C(F)(F)F)nc1)c1ccc2nc(N3CCC3)c(Oc3ccc(C#N)cc3)c(Cl)c2c1 (single isomer, unassigned) [Example 31c, 4-((2-(Azetidin-1-yl)-4-chloro-6-(hydroxy(1-methyl-1H-imidazol-5-yl)(6-(trifluoromethyl)pyridin-3-yl)methyl)quinolin-3-yl)oxy)benzonitrile]",–,0.017 µM,–,–
"Cn1cncc1C(O)(c1ccc(Cl)cc1)c1ccc2nc(N3CCC3)c(Oc3ccc(C#N)cc3)c(Cl)c2c1 (single isomer, unassigned) [Example 32b, 4-((2-(Azetidin-1-yl)-4-chloro-6-((4-chlorophenyl)(hydroxyl)(1-methyl-1H-imidazol-5-yl)methyl)quinolin-3-yl)oxy)benzonitrile]",101%,–,–,0.11 µM
"CCN(CC)c1nc2ccc(C(O)(c3ccc(OC)nc3)c3cncn3C)cc2c(C(F)(F)F)c1Oc1ccc(Cl)cc1 (stereo not shown) [Example 28, (3-(4-Chlorophenoxy)-2-(diethylamino)-4-(trifluoromethyl)quinolin-6-yl)(6-methoxypyridin-3-yl)(1-methyl-1H-imidazol-5-yl)methanol.TFA]",99%,–,–,0.12 µM
"CCN(CC)c1nc2ccc(C(O)(c3ccc(Cl)cc3)c3cncn3C)cc2c(C(F)(F)F)c1Oc1ccc(Cl)cc1 (stereo not shown) [Example 26, (3-(4-Chlorophenoxy)-2-(diethylamino)-4-(trifluoromethyl)quinolin-6-yl)(4-chlorophenyl)(1-methyl-1H-imidazol-5-yl)methanol.TFA]",89%,–,–,0.51 µM
"CCOc1nc2ccc(C(O)(c3ccc(OC)nc3)c3cncn3C)cc2c(Cl)c1Oc1ccccc1 (single isomer, unassigned) [Example 10b]",–,0.078 µM,97%,–
"CN(c1ccccc1)c1c(Cl)nc2ccc(C(O)(c3cccnc3)c3cccc(Cl)c3)cc2c1Cl (stereo not shown) [Example 35, (3-Chlorophenyl)(2,4-dichloro-3-(methyl(phenyl)amino)quinolin-6-yl)(pyridin-3-yl)methanol]",–,–,–,~1 µM
"CCN(CC)c1nc2ccc(C(O)(c3cccnc3)c3cccc(Cl)c3)cc2c(Cl)c1Oc1ccccc1 (stereo not shown) [Example 7, (4-Chloro-2-(diethylamino)-3-phenoxyquinolin-6-yl)(3-chlorophenyl)(pyridin-3-yl)methanol]",91%,–,–,0.11 µM
"COc1ccc(C(O)(c2ccc3nc(N(C)C)c(Oc4ccccc4)c(Cl)c3c2)c2cncn2C)cn1 (stereo not shown) [Example 17, (4-Chloro-2-(dimethylamino)-3-phenoxyquinolin-6-yl)(6-methoxypyridin-3-yl)(1-methyl-1H-imidazol-5-yl)methanol]",99%,–,–,0.11 µM
"CCN(CC)c1nc2ccc(C(O)(c3ccc(C(F)(F)F)nc3)c3cncn3C)cc2c(Cl)c1Oc1ccc(F)cc1 (single isomer, unassigned) [Example 9b]",–,0.32 µM,81%,–
"CCN(CC)c1nc2ccc(C(O)(c3ccc(C(F)(F)F)nc3)c3cncn3C)cc2c(Cl)c1Oc1ccccc1 (stereo not shown) [Example 6a, (4-Chloro-2-(diethylamino)-3-phenoxyquinolin-6-yl)(1-methyl-1H-imidazol-5-yl)(6-(trifluoromethyl)pyridin-3-yl)methanol]",102%,–,–,0.096 µM
"Cn1cncc1C(O)(c1ccc(Cl)cc1)c1ccc2nc(N3CCC3)c(Oc3ccc(C#N)cc3)c(Cl)c2c1 (single isomer, unassigned) [Example 32c, 4-((2-(Azetidin-1-yl)-4-chloro-6-((4-chlorophenyl)(hydroxyl)(1-methyl-1H-imidazol-5-yl)methyl)quinolin-3-yl)oxy)benzonitrile]",–,0.056 µM,101%,–
"CCN(CC)c1nc2ccc(C(O)(c3ccc(OC)nc3)c3cncn3C)cc2c(Cl)c1Oc1ccccc1 (single isomer, unassigned) [Example 5b, (4-Chloro-2-(diethylamino)-3-phenoxyquinolin-6-yl)(6-methoxypyridin-3-yl)(1-methyl-1H-imidazol-5-yl)methanol]",98%,–,–,0.085 µM
"CCN(CC)c1nc2ccc(C(O)(c3ccc(OC)nc3)c3cncn3C)cc2c(Cl)c1Oc1ccccc1 (single isomer, unassigned) [Example 5c, (4-Chloro-2-(diethylamino)-3-phenoxyquinolin-6-yl)(6-methoxypyridin-3-yl)(1-methyl-1H-imidazol-5-yl)methanol]",–,0.11 µM,104%,–
"CCN(c1ccccc1)c1c(Cl)nc2ccc(C(O)(c3cccnc3)c3cccc(Cl)c3)cc2c1Cl (stereo not shown) [Example 39, (3-Chlorophenyl)(2,4-dichloro-3-(ethyl(phenyl)amino)quinolin-6-yl)(pyridin-3-yl)methanol]",–,–,–,> 6 µM
